Laboratory results reported in patent USH1996H, “Insecticidal photostable acid salt derivatives of N-benzyl-4-benzhydrolpiperidines” (FMC Corporation, priority 1998, dated 2001).
Structures can show the parent of a compound that is named as a salt.

Legend:
[1] = photostability under Suntest CPS illuminator (filtered xenon lamp), HPLC; type: physicochemical; details: photodegradation of thin film on glass coverslips, simulated sunlight (xenon lamp), about 25 °C, 0-96 hours
Procedure: Compounds of the present invention were subjected to determinations of their photostability in side-by-side tests with their non-ionic parent analogs. These photostability tests are conducted as follows:
For each compound tested, four glass microscope coverslips (12 mm in diameter) for each illumination period (0, 3, 6, 12, 24, 48, and 96 hours) are spotted with 10 microliters of a one mg/mL acetonitrile or methanol solution of test compound. The solutions are allowed to evaporate leaving a thin film of test compound on each coverslip. The four coverslips representing the zero hour illumination period are placed in a 20 mL scintillation vial. In the vile is placed one mL of acetonitrile, which extracts the test chemical from the coverslip. The solution is then transferred to a two dram vile for analysis by HPLC. The average HPLC peak area generated by this sample defines the initial level of test compound. The remaining coverslips are then placed in the water-cooled chamber of the exposure platform of a Suntest CPS illuminator (Heraeus Instruments GmbH; Bereich Original Hanau, Hersaeusstrasse R-14, Postfach 1563, D-6450 Hanau 1). The exposure platform is covered with a quartz plate and maintained at about 25° C. for the duration of the test. The Suntest CPS illuminator employs a filtered xenon lamp, which provides illumination of a similar spectrum and intensity as sunlight. Four coverslips for each test compound are removed from the illuminator at the end of each illumination period described above. The four coverslips from each of the illumination periods are treated as described above and the acetonitrile extract is analyzed by HPLC. The average HPLC peak area from each of the illumination periods represents a diminished amount of test compound when compared to the initial level of test compound as determined from the zero hour illumination sample. The percents of test compound remaining from each of these illumination periods are used to generate a degradation curve from which a half life in hours is determined for each test compound.

[2] = system: tobacco budworm (Heliothis virescens [Fabricius]); test: insecticidal activity against tobacco budworm, treated artificial diet surface; type: in vivo; details: 0.0025 millimoles on the surface of the diet; second instar larvae; five-day exposure; 7200 min
Procedure: Candidate insecticides are evaluated for activity against tobacco budworm (Heliothis virescens [Fabricius]) by applications to the surface of a wheat germ-based artificial insect diet. Solutions of the candidate insecticides are prepared for testing by diluting a standard 50 millimolar DMSO solution of each candidate insecticide with DMSO, then further diluting with a 1:1 water/acetone solution (V/V). Forty microliters of this solution of calculated concentration is then pipetted onto the surface of the diet in each of six containers, to provide six replicates for each rate of application. Once treated, the contents of the containers are allowed to dry, leaving the calculated concentration ( in millimoles) of candidate insecticide on the surface of the diet. In each container is placed one second instar tobacco budworm […]. The container is sealed with a transparent film, and then held in a growth chamber for five days. After the five-day exposure period the insecticidal activity of the candidate insecticide is recorded as percent mortality when compared to the total number of insects infested. Insecticidal activity at a concentration of candidate insecticide of 0.0025 millimoles on the surface of the diet is given for various compounds of this invention in Table 4.

Row | SMILES | Half-life [1] | Percent Mortality [2]
1 | CCn1nnc(-c2ccc(CN3CCC(C(O)(c4ccc(C(F)(F)F)cc4)c4ccc(C(F)(F)F)cc4)CC3)cc2)n1 [A, reference compound] | 5.5 h | –
2 | CCn1nnc(-c2ccc(C[N+]3([O-])CCC(C(O)(c4ccc(C(F)(F)F)cc4)c4ccc(C(F)(F)F)cc4)CC3)cc2)n1 (centres unmarked) [B, N-[4-(2-ethyl-2H-tetrazol-5-yl)phenylmethyl]-4-[bis(4-trifluoromethylphenyl)hydroxymethyl]piperidine N-oxide, reference compound] | 13.9 h | –
3 | COC(=O)Nc1ccc(C[N+]2([O-])CCC(C(O)(c3ccc(OC(F)(F)F)cc3)c3ccc(OC(F)(F)F)cc3)CC2)cc1 (centres unmarked) [Compound 16] | – | 100%

Second part, led by results:

Row | Half-life [1] | SMILES | Percent Mortality [2]
4 | 23.0 h | CCn1nnc(-c2ccc(CN3CCC(C(O)(c4ccc(C(F)(F)F)cc4)c4ccc(C(F)(F)F)cc4)CC3)cc2)n1 [Compound 7] | –
5 | 34.0 h | CCn1nnc(-c2ccc(C[N+]3([O-])CCC(C(O)(c4ccc(C(F)(F)F)cc4)c4ccc(C(F)(F)F)cc4)CC3)cc2)n1 (centres unmarked) [Compound 33, N-[4-(2-ethyl-2H-tetrazol-5-yl)phenylmethyl]-4-[bis(4-trifluoro-methylphenyl)hydroxymethyl]piperidine N-oxide ethanesulfonic acid salt] | –
